Measurements: patent publication US20240360177A1, “PEPTIDES WITH ANTIMICROBIAL ACTIVITIES” (priority 2021, published 2024)
In brackets after ≈: the same amount, converted by molar mass. Read-outs that look alike come from different tables or passages of the source. Non-standard residues stand in square brackets, D forms with d. Residues, ends and D or L forms follow the SMILES beside them. *: point of attachment. Cyclohexanecarbonyl = O=C(C1CCCCC1)*; NBuGly = CCCCNCC(=O)O; Ava = NCCCCC(=O)O

Molecule | MIC C. auris (C. auris; 24 h) [µg/mL] | MIC C. dubliniensis (C. dubliniensis; 24 h) [µg/mL] | MIC C. glabrata (C. glabrata; 24 h) [µg/mL] | MIC C. albicans (C. albicans; 24 h) [µg/mL] | MIC C. tropicalis (C. tropicalis; 24 h) [µg/mL] | MIC C. krusei (C. krusei; 24 h) [µg/mL] | MIC C. parapsilosis (C. parapsilosis; 24 h) [µg/mL] | MIC C. auris (C. auris; CDC 386, 24 hrs) [µg/mL] | MIC C. dubliniensis (C. dubliniensis; ATCC MYA-578, 24 hrs) [µg/mL] | MIC C. glabrata (C. glabrata; ATCC 90030, 24 hrs) [µg/mL] | MIC C. albicans (C. albicans; ATCC 90028 or 90029, 24 hrs) [µg/mL] | MIC C. tropicalis (C. tropicalis; ATCC 90874, 24 hrs) [µg/mL] | MIC C. krusei (C. krusei; MMX 7135, 24 hrs) [µg/mL] | MIC C. parapsilosis (C. parapsilosis; ATCC 22019, 24 hrs) [µg/mL]
rRr-(Apg)-rRr-(Apg)-rRrR-(Apg)-rRrR-NH2 [SEQ ID NO: 38] | 2 | 0.5 | 1 | 0.5 | 0.5 | 0.25 | 0.25 | – | – | – | – | – | – | –
N=C(N)NCCC[C@@H](N)C(=O)N[C@@H](CCCNC(=N)N)C(=O)N[C@H](CCCNC(=N)N)C(=O)NCCCCC(=O)N[C@H](CCCNC(=N)N)C(=O)N[C@@H](CCCNC(=N)N)C(=O)N[C@H](CCCNC(=N)N)C(=O)NCCCCC(=O)N[C@H](CCCNC(=N)N)C(=O)N[C@@H](CCCNC(=N)N)C(=O)N[C@H](CCCNC(=N)N)C(=O)N[C@@H](CCCNC(=N)N)C(=O)NCCCCC(=O)N[C@H](CCCNC(=N)N)C(=O)N[C@@H](CCCNC(=N)N)C(=O)N[C@H](CCCNC(=N)N)C(=O)N[C@@H](CCCNC(=N)N)C(=O)N[C@@H](CCC(=O)O)C(=O)O [SEQ ID NO: 20, rRr-(Ava)-rRr-(Ava)-rRrR-(Ava)-rRrR-Glu] (H-[dR]R[dR][Ava][dR]R[dR][Ava][dR]R[dR]R[Ava][dR]R[dR]RE-OH) | – | – | – | – | – | – | – | 16 (≈ 6.08 µM) | 0.5 (≈ 0.19 µM) | 1 (≈ 0.38 µM) | 0.5 (≈ 0.19 µM) | 0.5 (≈ 0.19 µM) | 2 (≈ 0.76 µM) | 0.25 (≈ 0.095 µM)
CCCCN(CC(=O)N[C@H](CCCNC(=N)N)C(=O)N[C@@H](CCCNC(=N)N)C(=O)N(CCCC)CC(=O)N[C@H](CCCNC(=N)N)C(=O)N[C@@H](CCCNC(=N)N)C(=O)N[C@H](CCCNC(=N)N)C(=O)N(CCCC)CC(=O)N[C@H](CCCNC(=N)N)C(=O)N[C@@H](CCCNC(=N)N)C(=O)N[C@H](CCCNC(=N)N)C(N)=O)C(=O)[C@H](CCCNC(=N)N)NC(=O)[C@H](N)CCCNC(=N)N [SEQ ID NO: 36, rR-(ButylGly)-rR-(ButylGly)-rRr-(ButylGly)-rRr-NH2] (H-[dR]R[NBuGly][dR]R[NBuGly][dR]R[dR][NBuGly][dR]R[dR]-NH2) | – | 2 (≈ 1.04 µM) | 4 (≈ 2.09 µM) | 0.5 (≈ 0.261 µM) | 2 (≈ 1.04 µM) | – | 16 (≈ 8.34 µM) | – | – | – | – | – | – | –

Second part, led by results:

MIC C. auris (C. auris; 24 h) [µg/mL] | MIC C. dubliniensis (C. dubliniensis; 24 h) [µg/mL] | MIC C. glabrata (C. glabrata; 24 h) [µg/mL] | MIC C. albicans (C. albicans; 24 h) [µg/mL] | MIC C. tropicalis (C. tropicalis; 24 h) [µg/mL] | MIC C. krusei (C. krusei; 24 h) [µg/mL] | MIC C. parapsilosis (C. parapsilosis; 24 h) [µg/mL] | Molecule | MIC C. auris (C. auris; CDC 386, 24 hrs) [µg/mL] | MIC C. dubliniensis (C. dubliniensis; ATCC MYA-578, 24 hrs) [µg/mL] | MIC C. glabrata (C. glabrata; ATCC 90030, 24 hrs) [µg/mL] | MIC C. albicans (C. albicans; ATCC 90028 or 90029, 24 hrs) [µg/mL] | MIC C. tropicalis (C. tropicalis; ATCC 90874, 24 hrs) [µg/mL] | MIC C. krusei (C. krusei; MMX 7135, 24 hrs) [µg/mL] | MIC C. parapsilosis (C. parapsilosis; ATCC 22019, 24 hrs) [µg/mL]
2 (≈ 0.799 µM) | 0.5 (≈ 0.2 µM) | 0.5 (≈ 0.2 µM) | 0.5 (≈ 0.2 µM) | 0.5 (≈ 0.2 µM) | 1 (≈ 0.4 µM) | 0.25 (≈ 0.0999 µM) | N=C(N)NCCC[C@@H](N)C(=O)N[C@@H](CCCNC(=N)N)C(=O)N[C@H](CCCNC(=N)N)C(=O)NCCCCC(=O)N[C@H](CCCNC(=N)N)C(=O)N[C@@H](CCCNC(=N)N)C(=O)N[C@H](CCCNC(=N)N)C(=O)NCCCCC(=O)N[C@H](CCCNC(=N)N)C(=O)N[C@@H](CCCNC(=N)N)C(=O)N[C@H](CCCNC(=N)N)C(=O)N[C@@H](CCCNC(=N)N)C(=O)NCCCCC(=O)N[C@H](CCCNC(=N)N)C(=O)N[C@@H](CCCNC(=N)N)C(=O)N[C@H](CCCNC(=N)N)C(=O)N[C@@H](CCCNC(=N)N)C(=O)O [SEQ ID NO: 19, rRr-(Ava)-rRr-(Ava)-rRrR-(Ava)-rRrR] (H-[dR]R[dR][Ava][dR]R[dR][Ava][dR]R[dR]R[Ava][dR]R[dR]R-OH) | – | – | – | – | – | – | –
1 (≈ 0.384 µM) | 0.5 (≈ 0.192 µM) | 1 (≈ 0.384 µM) | 1 (≈ 0.384 µM) | 1 (≈ 0.384 µM) | 2 (≈ 0.768 µM) | 0.5 (≈ 0.192 µM) | N=C(N)NCCC[C@H](NC(=O)[C@@H](CCCNC(=N)N)NC(=O)[C@H](CCCNC(=N)N)NC(=O)[C@@H](CCCNC(=N)N)NC(=O)[C@@H]1CCCN1C(=O)[C@H](CCCNC(=N)N)NC(=O)[C@@H](CCCNC(=N)N)NC(=O)[C@H](CCCNC(=N)N)NC(=O)[C@@H](CCCNC(=N)N)NC(=O)[C@@H]1CCCN1C(=O)[C@@H](CCCNC(=N)N)NC(=O)[C@H](CCCNC(=N)N)NC(=O)[C@@H](CCCNC(=N)N)NC(=O)[C@@H]1CCCN1C(=O)[C@@H](CCCNC(=N)N)NC(=O)[C@H](CCCNC(=N)N)NC(=O)[C@@H](CCCNC(=N)N)NC(=O)C1CCCCC1)C(N)=O [SEQ ID NO: 58, cHexC(O)NH-rRr-P-rRr-P-rRrR-P-rRrR-NH2] (Cyclohexanecarbonyl-[dR]R[dR]P[dR]R[dR]P[dR]R[dR]RP[dR]R[dR]R-NH2; N-terminus and C-terminus assumed) | – | – | – | – | – | – | –
– | 0.5 (≈ 0.2 µM) | 1 (≈ 0.4 µM) | 1 (≈ 0.4 µM) | 0.5 (≈ 0.2 µM) | – | 0.5 (≈ 0.2 µM) | N=C(N)NCCC[C@@H](N)C(=O)N[C@@H](CCCNC(=N)N)C(=O)N[C@H](CCCNC(=N)N)C(=O)NCCCCC(=O)N[C@H](CCCNC(=N)N)C(=O)N[C@@H](CCCNC(=N)N)C(=O)N[C@H](CCCNC(=N)N)C(=O)NCCCCC(=O)N[C@H](CCCNC(=N)N)C(=O)N[C@@H](CCCNC(=N)N)C(=O)N[C@H](CCCNC(=N)N)C(=O)N[C@@H](CCCNC(=N)N)C(=O)NCCNCC(=O)N[C@H](CCCNC(=N)N)C(=O)N[C@@H](CCCNC(=N)N)C(=O)N[C@H](CCCNC(=N)N)C(=O)N[C@@H](CCCNC(=N)N)C(N)=O [SEQ ID NO: 43, rRr-(Ava)-rRr-(Ava)-rRrR-(Aeg)-rRrR-NH2] | – | – | – | – | – | – | –
